Test results reported in article PMC6383929, “Design, antimicrobial activity and mechanism of action of Arg-rich ultra-short cationic lipopeptides” (PLoS ONE, 2019).
Converted amounts (≈) assume the structure as drawn. Where a SMILES comes first, the peptide text is derived from it. The star is where a group is joined. Lauroyl = CCCCCCCCCCCC(=O)*

Assays:
[1] = RP-HPLC retention time (hydrophobicity); assay type: physicochemical; settings: stated to reliably reflect the hydrophobicity in aqueous solution, assessed and provided by GenScript
Protocol: GenScript (Piscataway, NJ, USA) carried out the custom synthesis of USCLs by using high efficient solid phase peptide synthesis. The fatty acid was conjugated to the N-terminus of the peptide using the same procedure followed to attach protected amino acids to the growing peptide chain for synthesis. The purity (>90%), sequence and molecular weight of USCLs were assessed and provided by GenScript using RP-HPLC and ESI-MS. USCLs were dissolved in sterile water or DMSO at 10 mg/mL, according to manufacturer's indications.

[2] = test system: K. pneumoniae ATCC 700603; assay type: cell-based, Klebsiella pneumoniae; settings: ATCC 700603, 24 h
Excerpt: (§1) Bacteria used in this study were Escherichia coli ATCC 25922 and O18K1H7, Staphylococcus aureus ATCC 25923 and ATCC 29213, Pseudomonas aeruginosa ATCC 27853, Staphylococcus epidermidis ATCC 12228, Enterococcus faecalis ATCC 29212, Bacillus subtilis DSM 4181, Listeria monocytogenes DSM 20600, Salmonella typhimurium ATCC 14028, Acinetobacter baumannii ATCC 19606 and 17978, Klebsiella pneumoniae ATCC 13883 and 700603, Stenotrophomonas maltophilia ATCC 13637 and Burkholderia cenocepacia J2315. In addition to reference strains, a clinical isolate of E. faecalis vancomycin-resistant (VREF, strain M), and three clinical isolates of S. aureus methicillin-resistant (MRSA, strains E, G and 11), kindly provided by Dr. Lucilla Dolzani, were used. All MRSA strains are resistant to GEN, IPM, OXA, PEN, CIP and CEF; the S. aureus E strain is also resistant to CLI and ERY. VREF strain is resistant to AMK, ATM, GEN, NET, PEN, TEC, TET, TOB and VAN.
(§2) For the assays, overnight bacterial cultures were diluted 1:30 in fresh Mueller-Hinton Broth (MHB, Difco) and incubated at 37°C with shaking for approximately 2h.
(§3) The antimicrobial activity of USCLs was determined by the Minimum Inhibitory Concentration (MIC) assay, according to the guidelines of CLSI (Clinical & Laboratory Standards Institute) and described in [30, 31]. Briefly, the assays were performed in 96-well microplates in appropriate broth (MHB or SAB). […] For bacteria, a mid-log phase bacterial suspension at 2.5 × 10^5 CFU/mL in MHB was used, and the microplates incubated at 37°C for 24h. The fungal suspension in SAB broth was used at a final concentration of 5 × 10^4 cells/mL. Microplates were then incubated at 30°C for 48h. The MIC value was taken as the lowest concentration of USCLs resulting in the complete inhibition of visible bacterial or fungal growth after appropriate incubation time. Results derive from at least three independent experiments carried out in duplicate.

[3] = test system: K. pneumoniae ATCC 13883; assay type: cell-based, Klebsiella pneumoniae; settings: ATCC 13883, 24 h
Excerpt: as §1, §2, §3

[4] = test system: S. maltophilia ATCC 13637; assay type: cell-based, Stenotrophomonas maltophilia; settings: ATCC 13637, 48 h
Excerpt: as §1, §2
as §3, with “For bacteria, a mid-log phase bacterial suspension at 2.5 × 10^5 CFU/mL in MHB was used, and the microplates incubated at 37°C for 24h.” left out

[5] = test system: L. monocytogenes DSM 20600; assay type: cell-based, Listeria monocytogenes; settings: DSM 20600, 24 h
Excerpt: as §1, §2, §3

[6] = test system: S. aureus ATCC 29213; assay type: cell-based, Staphylococcus aureus; settings: ATCC 29213, 24 h
Excerpt: as §1, §2, §3

[7] = test system: S. aureus G (MRSA clinical isolate); assay type: cell-based, Staphylococcus aureus; settings: G ( clinical isolate, 24 h)
Excerpt: as §1, §2, §3

[8] = test system: S. aureus 11 (MRSA clinical isolate); assay type: cell-based, Staphylococcus aureus; settings: 11 ( clinical isolate, 24 h)
Excerpt: as §1, §2, §3

[9] = test system: S. aureus E (MRSA clinical isolate); assay type: cell-based, Staphylococcus aureus; settings: E ( clinical isolate, 24 h)
Excerpt: as §1, §2, §3

[10] = test system: S. aureus ATCC 25923; assay type: cell-based, Staphylococcus aureus; settings: ATCC 25923, 24 h
Excerpt: as §1, §2, §3

[11] = test system: E. faecalis ATCC 29212; assay type: cell-based, Enterococcus faecalis; settings: ATCC 29212, 24 h
Excerpt: as §1, §2, §3

[12] = test system: A. baumannii ATCC 17978; assay type: cell-based, Acinetobacter baumannii; settings: ATCC 17978, 24 h
Excerpt: as §1, §2, §3

[13] = test system: A. baumannii ATCC 19606; assay type: cell-based, Acinetobacter baumannii; settings: ATCC 19606, 24 h
Excerpt: as §1, §2, §3

[14] = test system: E. coli O18K1H7; assay type: cell-based, Escherichia coli; settings: O18K1H7, 24 h
Excerpt: as §1, §2, §3

[15] = test system: C. albicans SC 5314; assay type: cell-based, Candida albicans; settings: SC 5314, 48 h
Protocol: (§4) Fungal strains used were Candida albicans ATCC 90029 and SC5314. Fungi were grown on Sabouraud dextrose (SAB, Difco) agar plates at 30°C for 48h. The initial fungal inoculum was prepared by picking and suspending five colonies in 5 mL of sterile PBS.
as §3

[16] = test system: C. albicans ATCC 90029; assay type: cell-based, Candida albicans; settings: ATCC 90029, 48 h
Protocol: as §4, §3

[17] = test system: B. cenocepacia J2315; assay type: cell-based, Burkholderia cenocepacia; settings: 48 h
Excerpt: as §1, §2
as §3, with “For bacteria, a mid-log phase bacterial suspension at 2.5 × 10^5 CFU/mL in MHB was used, and the microplates incubated at 37°C for 24h.” left out

[18] = test system: S. typhimurium ATCC 14028; assay type: cell-based, Salmonella typhimurium; settings: ATCC 14028, 24 h
Excerpt: as §1, §2, §3

[19] = test system: E. faecalis M (VREF clinical isolate); assay type: cell-based, Enterococcus faecalis; settings: M (VREF clinical isolate, 24 h)
Excerpt: as §1, §2, §3

[20] = test system: E. coli ATCC 25922; assay type: cell-based, Escherichia coli; settings: ATCC 25922, 24 h
Excerpt: as §1, §2, §3

[21] = test system: P. aeruginosa ATCC 27853; assay type: cell-based, Pseudomonas aeruginosa; settings: ATCC 27853, 24 h
Excerpt: as §1, §2, §3

[22] = test system: B. subtilis DSM 4181; assay type: cell-based, Bacillus subtilis; settings: DSM 4181, 24 h
Excerpt: as §1, §2, §3

Compound | Retention time [1] [min] | MIC [2] [µg/mL] | MIC [3] [µg/mL] | MIC [4] [µg/mL] | MIC [5] [µg/mL] | MIC [7] [µg/mL] | MIC [8] [µg/mL] | MIC [9] [µg/mL] | MIC [10] [µg/mL] | MIC [11] [µg/mL] | MIC [12] [µg/mL] | MIC [14] [µg/mL] | MIC [15] [µg/mL] | MIC [16] [µg/mL] | MIC [17] [µg/mL] | MIC [18] [µg/mL] | MIC [19] [µg/mL] | MIC [20] [µg/mL] | MIC [21] [µg/mL] | MIC [22] [µg/mL] | further results
CCCCCCCCCCCC(=O)N[C@@H](CCCNC(=N)N)C(=O)N[C@@H](CCCNC(=N)N)C(=O)N[C@@H](Cc1ccccc1)C(=O)N[C@@H](Cc1c[nH]c2ccccc12)C(N)=O [Lau-RRFW, Lau-RRFW-NH2] (Lauroyl-RRFW-NH2) | 22.609 | 25 (≈ 29.6 µM) | 50 (≈ 59.2 µM) | 6.25 (≈ 7.4 µM) | 3.125 (≈ 3.7 µM) | 6.25 (≈ 7.4 µM) | 6.25 (≈ 7.4 µM) | 3.125 (≈ 3.7 µM) | 3.125 (≈ 3.7 µM) | 6.25 (≈ 7.4 µM) | 12.5 (≈ 14.8 µM) | 12.5 (≈ 14.8 µM) | 12.5 (≈ 14.8 µM) | 3.125 (≈ 3.7 µM) | 12.5 (≈ 14.8 µM) | – | – | – | – | – | MIC [6]: 3.125 µg/mL (≈ 3.7 µM); MIC [13]: 12.5 µg/mL (≈ 14.8 µM)
CCCCCCCCCCCC(=O)N[C@@H](CCCNC(=N)N)C(=O)N[C@@H](CCCNC(=N)N)C(=O)N[C@H](C(=O)N[C@@H](Cc1c[nH]c2ccccc12)C(N)=O)[C@@H](C)CC [Lau-RRIW, Lau-RRIW-NH2] (Lauroyl-RRIW-NH2) | 20.957 | – | – | 12.5 (≈ 15.4 µM) | 3.125 (≈ 3.85 µM) | 3.125 (≈ 3.85 µM) | – | 3.125 (≈ 3.85 µM) | 3.125 (≈ 3.85 µM) | 6.25 (≈ 7.71 µM) | 25 (≈ 30.8 µM) | 12.5 (≈ 15.4 µM) | 12.5 (≈ 15.4 µM) | 3.125 (≈ 3.85 µM) | 6.25 (≈ 7.71 µM) | 25 (≈ 30.8 µM) | 6.25 (≈ 7.71 µM) | 12.5 (≈ 15.4 µM) | 12.5 (≈ 15.4 µM) | 3.125 (≈ 3.85 µM) | MIC [6]: 3.125 µg/mL (≈ 3.85 µM); MIC [13]: 12.5 µg/mL (≈ 15.4 µM)
CCCCCCCCCCCC(=O)N[C@@H](CCCNC(=N)N)C(=O)N[C@@H](CCCNC(=N)N)C(=O)N[C@@H](Cc1ccccc1)C(=O)N[C@@H](Cc1c[nH]c2ccccc12)C(=O)N[C@@H](CCCNC(=N)N)C(=O)N[C@@H](CCCNC(=N)N)C(N)=O [Lp-F^RR, Lau-RRFWRR-NH2] (Lauroyl-RRFWRR-NH2) | 22.087 | 25 (≈ 21.6 µM) | 25 (≈ 21.6 µM) | 12.5 (≈ 10.8 µM) | 1.56 (≈ 1.35 µM) | 3.125 (≈ 2.7 µM) | 3.125 (≈ 2.7 µM) | 3.125 (≈ 2.7 µM) | 3.125 (≈ 2.7 µM) | 6.25 (≈ 5.4 µM) | 25 (≈ 21.6 µM) | 25 (≈ 21.6 µM) | 100 (≈ 86.4 µM) | 1.56 (≈ 1.35 µM) | 12.5 (≈ 10.8 µM) | 25 (≈ 21.6 µM) | 6.25 to 12.5 | 12.5 (≈ 10.8 µM) | 12.5 (≈ 10.8 µM) | 1.56 (≈ 1.35 µM) | –
CCCCCCCCCCCC(=O)N[C@@H](CCCNC(=N)N)C(=O)N[C@@H](CCCNC(=N)N)C(=O)N[C@@H](Cc1c[nH]c2ccccc12)C(=O)N[C@@H](CCCNC(=N)N)C(N)=O [Lp-R, Lau-RRWR-NH2] (Lauroyl-RRWR-NH2) | 21.651 | 100 (≈ 117 µM) | >100 | 12.5 (≈ 14.6 µM) | – | 3.125 (≈ 3.66 µM) | 3.125 (≈ 3.66 µM) | 3.125 (≈ 3.66 µM) | 3.125 (≈ 3.66 µM) | 6.25 (≈ 7.32 µM) | – | 25 (≈ 29.3 µM) | 50 (≈ 58.5 µM) | 1.56 (≈ 1.83 µM) | 50 (≈ 58.5 µM) | 100 (≈ 117 µM) | 12.5 (≈ 14.6 µM) | 12.5 (≈ 14.6 µM) | 25 (≈ 29.3 µM) | 1.56 (≈ 1.83 µM) | –
CCCCCCCCCCCC(=O)N[C@@H](CCCNC(=N)N)C(=O)N[C@@H](CO)C(=O)N[C@@H](Cc1c[nH]c2ccccc12)C(=O)N[C@@H](CCCNC(=N)N)C(N)=O [Lp-S, Lau-RSWR-NH2] (Lauroyl-RSWR-NH2) | 16.117 | – | – | – | – | – | – | – | 6.25 (≈ 7.96 µM) | – | – | – | – | – | – | – | – | 25 (≈ 31.8 µM) | 25 (≈ 31.8 µM) | – | –
